Results published in patent publication US9980928B2, “Hydroxy aliphatic substituted phenyl aminoalkyl ether derivatives” (PROUS INSTITUTE FOR BIOMEDICAL RESEARCH, S.A., priority 2012, dated 2018).
Where “and” joins values, the source holds several entries; their conditions need not be identical. Equal values may be shown once.

Columns and labels:
[1] = system: CHO cells; assay: In vitro MTT toxicity screen; format: cell-based, Chinese hamster; conditions: 10 μM, compared to positive control group (10% DMSO)
Description: The toxicity of the compounds of the present invention at a concentration of 10 μM has been explored using the tetrazolium salt (MTT) method in CHO cells. The MTT method involving conversion of MTT to colored formazan by cells serves as an indirect measurement of cell growth/cell kill, as reported by several groups (Paimela, T. et al. Mol Vis 2012; 18: 1189-96; Hansen, M. B. et al. J Immunol Methods 1989, 119(2): 203-10).
In the MTT assay, cytotoxicity is correlated with the color of MTT and is measured with a spectrophotometer at the wavelength of 570 nm. Briefly, fresh MTT solution (10 mg/mL in 1×PBS) was added (1:20 volume of medium) and the cells were incubated for 1.5 hours. The cells were lysed and purple formazan was dissolved into the solution by overnight incubation with MTT lysis buffer (20% SDS, 50% N,N-dimethylformamide, 2% acetic acid, 25 mM HCl; the volume of medium+volume of MTT salt solution).

[2] = target: T1, norepinephrine (NE) transporter (Homo sapiens, UniProt P23975); assay: Norepinephrine transporter binding radioligand inhibition ([3H]-nisoxetine); conditions: concentration 5 μM
T1 construct: expressed in transfected cells; host or cells: CHO cells
Description: The norepinephrine (NE) transporter removes NE from the synaptic cleft. The NE transporter terminates the effects of […], enabling its reuse by the presynaptic neuron. The in vitro binding of the compounds of the invention to the NE transporter and the percent inhibition of control-specific binding ([^3H]-nisoxetine in human recombinant CHO cells) is determined following the method described in Pacholczyk et al., (Nature 1991, 350(6316): 350-4.

[3] = target: uptake of norepinephrine (Homo sapiens, UniProt P23975); assay: Uptake inhibition of norepinephrine, cellular assay; format: cell-based; conditions: read-out: Norepinephrine reuptake inhibition (IC50 μM)
Description: (§1) The effect of the compounds of the present invention as inhibitors of the uptake of norepinephrine and serotonin in cellular assays at concentrations that range from […] to 1 nM is determined following the methods described in Galli, A. et al. J Exp Biol 1995, 198(Pt. 10): 2197-212 and Gu, H. et al. J Biol Chem. 1994, 269(10):7124-30.

[4] = system: mice; assay: Novel object recognition test (acute); format: in vivo
Description: The novel object recognition task is used to evaluate cognition, particularly memory recognition, in rodent models of CNS disorders. This test is based on the spontaneous tendency of rodents to spend more time exploring a novel object than a familiar one. The choice to explore the novel object reflects the use of learning and memory recognition. The novel object recognition test provides a measure of activity in a novel environment allowing tests for emotional reactivity and also for novel object recognition, a cognitive domain that depends on hippocampal functional integrity. Animals were habituated to the presence of two identical objects (LEGO® pieces) during a single session of 5 minutes (training) and sniffing (exploration of an object was defined as pointing the nose to the object at a distance of <1 cm and/or touching it with the nose). Mice were injected with saline or with the compound to be tested and returned to their home cages. At 24 hours the animals were introduced in the same open field again with the same two items (familiarization), and again exploration in each of them for 5 minutes was registered. One hour later, the mice were retested in the open field for 3 minutes, but this time with one of the “familiar” objects replaced by a new one (test). To analyze cognitive performance, a discrimination index was calculated as the difference in time exploring the novel and familiar object, expressed as the ratio of the total time spent exploring both objects, which made it possible to adjust for any differences in total exploration time. This test is useful for assessing impaired cognitive ability in transgenic strains of mice and evaluating novel chemical entities for their effect on cognition (Zhang, R. J Alzheimers Dis 2012, 31(4): 801-12). […] Neuroplasticity 2007, 26496).

[5] = system: p-PLCγ1; assay: Western blot of p-PLCγ1 in mouse brain after i.p. administration; format: in vivo, mice; conditions: 30 mg/kg i.p., 1 hour after administration
Description: Acute biochemical neuronal changes in neurotrophin and synaptic plasticity signaling after the administration of the compounds to be tested may be studied by Western blot assessment of ERK, Akt, phospholipase C (PLC), Trk-B, […] and CAMK II phosphorylation assays in the hippocampus, striatum and cortex at 1 hour post-administration.
Two groups of animals were used: C57BL control mice and mice treated by i.p. administration of a dose of 30 mg/kg of the compound to be tested diluted in saline solution or control saline (n=6 per group).
Animals were sacrificed by cervical dislocation at the corresponding time and different brain regions were dissected (frontal cortex, striatum, hippocampus, cerebellum) after […] of having administered the compounds. […] The supernatants were collected and the protein concentration was measured using the Dc protein assay kit (Bio-Rad, Hercules, Calif., USA) read in a 96-well plate. […]
After primary antibody incubation, membranes were washed with TBS-T and incubated for 1 hour at room temperature with the appropriate horseradish peroxidase-conjugated secondary antibody (1:2000; Promega, Madison, Wis., USA), and the reaction was finally visualized with the Western Blotting Luminol Reagent (Santa Cruz Biotechnology, Santa Cruz, Calif., USA). Western blot replicates were scanned and quantified using a computer-assisted densitometric analysis.

[6] = target: uptake of serotonin (Homo sapiens, UniProt P31645); assay: Uptake inhibition of serotonin, cellular assay; format: cell-based; conditions: read-out: Serotonin reuptake inhibition (IC50 μM)
Description: as §1

[7] = acute administration, test session

Sequence of uptake of serotonin (P31645 whole entry): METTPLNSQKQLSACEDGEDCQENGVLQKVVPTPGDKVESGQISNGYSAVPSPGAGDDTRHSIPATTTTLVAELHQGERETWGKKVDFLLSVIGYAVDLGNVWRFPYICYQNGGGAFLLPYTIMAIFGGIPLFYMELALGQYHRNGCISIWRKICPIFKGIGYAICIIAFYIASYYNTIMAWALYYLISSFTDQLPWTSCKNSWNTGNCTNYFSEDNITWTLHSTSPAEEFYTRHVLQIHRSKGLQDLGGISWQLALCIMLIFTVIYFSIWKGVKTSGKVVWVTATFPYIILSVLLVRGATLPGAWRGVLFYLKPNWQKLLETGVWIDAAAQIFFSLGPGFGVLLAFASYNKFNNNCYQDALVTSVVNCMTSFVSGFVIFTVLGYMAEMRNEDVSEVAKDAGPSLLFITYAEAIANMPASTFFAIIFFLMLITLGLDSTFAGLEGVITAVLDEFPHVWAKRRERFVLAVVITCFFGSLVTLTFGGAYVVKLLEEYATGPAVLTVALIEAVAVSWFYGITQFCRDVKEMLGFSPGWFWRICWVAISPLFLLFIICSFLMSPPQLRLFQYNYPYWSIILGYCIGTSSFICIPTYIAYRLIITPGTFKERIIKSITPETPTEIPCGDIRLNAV
Sequence of uptake of norepinephrine (P23975 whole entry): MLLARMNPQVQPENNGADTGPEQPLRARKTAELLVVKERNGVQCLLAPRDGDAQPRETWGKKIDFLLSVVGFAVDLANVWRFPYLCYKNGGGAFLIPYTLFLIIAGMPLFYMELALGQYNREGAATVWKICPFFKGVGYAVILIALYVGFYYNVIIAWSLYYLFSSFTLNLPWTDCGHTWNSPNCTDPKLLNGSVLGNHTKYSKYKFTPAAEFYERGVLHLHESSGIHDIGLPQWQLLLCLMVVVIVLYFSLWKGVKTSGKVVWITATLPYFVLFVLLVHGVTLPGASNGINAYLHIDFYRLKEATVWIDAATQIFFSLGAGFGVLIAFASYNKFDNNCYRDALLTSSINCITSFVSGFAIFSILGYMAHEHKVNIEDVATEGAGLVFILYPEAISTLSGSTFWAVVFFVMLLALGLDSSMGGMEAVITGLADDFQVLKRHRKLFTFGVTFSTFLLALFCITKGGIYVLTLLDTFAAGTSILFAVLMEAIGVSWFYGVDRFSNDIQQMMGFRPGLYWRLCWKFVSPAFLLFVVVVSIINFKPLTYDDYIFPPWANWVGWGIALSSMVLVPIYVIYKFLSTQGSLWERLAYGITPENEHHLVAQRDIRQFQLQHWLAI
T1 sequence (P23975 whole entry): as above

For `CNCCC(Oc1ccc(CCO)cc1)c1ccccc1.Cl` (single isomer, unassigned) [Example 2, 2-[4-[3-(Methylamino)-1-phenylpropoxy]phenyl]ethanol hydrochloride], which “cell viability (MTT)” value [1] is on record?
Its value is 100%.

What about the inhibition at 5 µM [2] of the same molecule?
Its inhibition at 5 µM is 95%.

And the IC50 [3]?
The IC50 was 0.0864 µM and 0.086 µM.

And the time familiar object [4, 7]?
Its time familiar object is 24.4%.

And the time new object [4, 7]?
The time new object was 75.5%.

And the “discrimination of the two objects vs saline group” value ([4]; acute conditions)?
Its value is “discriminated the two objects better”.

What about the p-PLCγ1 change [5] of the same molecule?
Its p-PLCγ1 change is “No significant change”.

What about the IC50 [6] of the same molecule?
The IC50 was 0.328 µM and 0.348 µM.
